From patent publication US12252524B2, “GIP/GLP1 co-agonist compounds” (Eli Lilly and Company, priority 2018, dated 2025)
Numbered stars: 1 amine (or outer) side, 2 acyl side, 3 side chain; on linkers, the order of the positions; unused ones are H or OH. Square brackets hold non-standard residues; d marks the D form. Side chains are listed from the residue outwards. Peptide text beside a SMILES is read from it. * marks the point of attachment. C20 diacid = O=C(O)CCCCCCCCCCCCCCCCCCC(=O)*; γGlu = O=C(O)[C@H](CCC(=O)[*:2])N[*:1]; αMeY = C[C@](N)(Cc1ccc(O)cc1)C(=O)O; αMeL = CC(C)C[C@](C)(N)C(=O)O; Orn = NCCC[C@H](N)C(=O)O; AEEA = NCCOCCOCC(=O)O; Aib = CC(C)(N)C(=O)O

Legend:
[1] = biological target: human GLP-1 receptor (GLP-1R) (Homo sapiens, UniProt P43220); assay: cAMP pharmacological functional assay in presence of casein, hGLP-1R; type: cell-based; details: HEK293 cells expressing hGLP-1R, 0.1% Casein, geometric mean; read-out: hGLP1R cAMP Rel EC50 nM (SEM, n)
[2] = biological target: T1, gastric inhibitory peptide receptor (GIPR) (Homo sapiens, UniProt P48546); assay: cAMP pharmacological functional assay in presence of casein, hGIPR; type: cell-based; details: HEK293 cells expressing hGIPR, 0.1% Casein, geometric mean; read-out: hGIPR cAMP Rel EC50 nM (SEM, n)
T1 sequence (P48546 22-466): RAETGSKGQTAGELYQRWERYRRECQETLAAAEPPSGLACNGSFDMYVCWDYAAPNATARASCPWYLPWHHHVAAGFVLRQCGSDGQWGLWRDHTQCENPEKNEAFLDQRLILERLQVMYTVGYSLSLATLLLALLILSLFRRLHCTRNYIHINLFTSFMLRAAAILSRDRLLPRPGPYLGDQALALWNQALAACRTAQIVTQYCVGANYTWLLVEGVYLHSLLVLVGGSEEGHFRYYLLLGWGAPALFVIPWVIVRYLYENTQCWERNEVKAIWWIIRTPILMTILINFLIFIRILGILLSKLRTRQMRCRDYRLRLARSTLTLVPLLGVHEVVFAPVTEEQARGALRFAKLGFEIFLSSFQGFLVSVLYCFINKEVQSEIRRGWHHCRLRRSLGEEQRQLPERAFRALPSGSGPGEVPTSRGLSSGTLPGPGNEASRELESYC

human GLP-1R [3] = biological target: T2, human GLP-1R (Homo sapiens, UniProt P43220); assay: GLP-1R CHO cell β-arrestin recruitment assay; type: cell-based; set-up: host or cells: CHO-K1 PathHunter cells, assay-ready frozen; details: for EC50: CHO-K1 cells, PathHunter β-arrestin-2 recruitment, 0.1% casein, read-out: hGLP1R B-Arrestin2 Rel EC50 uM (SEM, n); for hGLP1R B-Arrestin2 % Top: normalized to GLP-1 maximum control
Procedure, shortened: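 Peptide-induced β-arrestin-2 recruitment measured by enzyme-fragment complementation luminescence after 90 min at 37 °C plus 60 min detection at RT.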

human GLP-1R [4] = biological target: T2, human GLP-1R; assay: GLP-1R HEK293 cell membrane [35S]GTPγS binding assay; type: biochemical; set-up: expressed in transfected cells; host or cells: HEK293 cells expressing human GLP-1R; membranes; details: HEK293 cell membranes expressing human GLP-1R, [35S]GTPγS binding; read-out: hGLP1R GTPgS Rel EC50 nM (SEM, n)
Procedure, shortened: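 Agonist-driven Gαs activation read as [35S]GTPγS ([…]) binding to receptor-expressing HEK293 membranes, 30 min at room temperature, pH 7.4. Detection by anti-Gαs immunocapture on scintillation beads; EC50 derived from four-parameter logistic concentration-response fit.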

T2 sequence (P43220 24-463): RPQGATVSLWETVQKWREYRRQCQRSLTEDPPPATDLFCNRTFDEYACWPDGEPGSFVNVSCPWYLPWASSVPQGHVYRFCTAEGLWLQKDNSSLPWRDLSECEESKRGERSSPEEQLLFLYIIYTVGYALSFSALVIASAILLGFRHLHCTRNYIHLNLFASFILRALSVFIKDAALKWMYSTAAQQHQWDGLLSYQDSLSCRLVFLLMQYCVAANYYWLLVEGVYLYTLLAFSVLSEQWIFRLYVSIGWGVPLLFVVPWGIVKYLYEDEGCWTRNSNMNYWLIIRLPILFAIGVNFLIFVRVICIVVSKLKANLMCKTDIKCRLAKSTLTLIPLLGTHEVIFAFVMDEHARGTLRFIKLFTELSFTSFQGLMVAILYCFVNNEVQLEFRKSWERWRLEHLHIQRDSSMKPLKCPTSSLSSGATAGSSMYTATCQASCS
Chain of human GLP-1 receptor (GLP-1R) (P43220 24-463): as above

Row | Structure (SMILES) | EC50 [1] [nM] | EC50 [2] [nM] | EC50 (human GLP-1R [3]) [µM] | hGLP1R B-Arrestin2 % Top (human GLP-1R [3]) [%] | EC50 (human GLP-1R [4]) [nM]
1 | CC[C@H](C)[C@H](NC(=O)[C@H](CC(C)C)NC(=O)[C@H](Cc1ccc(O)cc1)NC(=O)[C@@H](CCC(=O)O)NC(=O)[C@@H](NC(=O)[C@H](Cc1ccccc1)NC(=O)[C@H](CCC(=O)O)NC(=O)C(C)(C)NC(=O)[C@H](CCC(N)=O)NC(=O)[C@H](C)NC(=O)[C@H](CCCCNC(=O)COCCOCCNC(=O)COCCOCCNC(=O)CC[C@H](NC(=O)CCCCCCCCCCCCCCCCCCC(=O)O)C(=O)O)NC(=O)[C@H](CCCN)NC(=O)[C@H](CC(=O)O)NC(=O)[C@H](CC(C)C)NC(=O)[C@](C)(CC(C)C)NC(=O)[C@@H](NC(=O)[C@H](CO)NC(=O)[C@H](Cc1ccc(O)cc1)NC(=O)[C@H](CC(=O)O)NC(=O)[C@H](CO)NC(=O)[C@@H](NC(=O)[C@H](Cc1ccccc1)NC(=O)[C@@H](NC(=O)CNC(=O)[C@H](CCC(=O)O)NC(=O)C(C)(C)NC(=O)[C@H](N)Cc1ccc(O)cc1)[C@@H](C)O)[C@@H](C)O)[C@@H](C)CC)[C@@H](C)CC)C(=O)N[C@@H](CCC(=O)O)C(=O)NCC(=O)NCC(=O)N1CCC[C@H]1C(=O)N[C@@H](CO)C(=O)N[C@@H](CO)C(=O)NCC(=O)N[C@@H](C)C(=O)N1CCC[C@H]1C(=O)N1CCC[C@H]1C(=O)N1CCC[C@H]1C(=O)N[C@@H](CO)C(N)=O [Example 355] (H-[dY][Aib]EGTFTSDYSI[αMeL]LD[Orn]K([AEEA-AEEA-γGlu-C20 diacid])AQ[Aib]EFI[dE]YLIEGGPSSGAPPPS-NH2) | 0.896 | 0.685 | 0.363 | 18.3 | 1.76
2 | CC[C@H](C)[C@H](NC(=O)[C@H](CC(C)C)NC(=O)[C@](C)(Cc1ccc(O)cc1)NC(=O)[C@H](CCC(=O)O)NC(=O)[C@@H](NC(=O)[C@H](Cc1ccccc1)NC(=O)[C@H](C)NC(=O)C(C)(C)NC(=O)[C@H](CCC(N)=O)NC(=O)[C@H](C)NC(=O)[C@H](CCCCNC(=O)COCCOCCNC(=O)COCCOCCNC(=O)CC[C@H](NC(=O)CCCCCCCCCCCCCCCCCCC(=O)O)C(=O)O)NC(=O)[C@H](CCCCN)NC(=O)[C@H](CC(=O)O)NC(=O)[C@H](CC(C)C)NC(=O)[C@](C)(CC(C)C)NC(=O)[C@@H](NC(=O)[C@H](CO)NC(=O)[C@H](Cc1ccc(O)cc1)NC(=O)[C@H](CC(=O)O)NC(=O)[C@H](CO)NC(=O)[C@@H](NC(=O)[C@H](Cc1ccccc1)NC(=O)[C@@H](NC(=O)CNC(=O)[C@H](CCC(=O)O)NC(=O)C(C)(C)NC(=O)[C@H](N)Cc1ccc(O)cc1)[C@@H](C)O)[C@@H](C)O)[C@@H](C)CC)[C@@H](C)CC)C(=O)N[C@@H](C)C(=O)NCC(=O)NCC(=O)N1CCC[C@H]1C(=O)N[C@@H](CO)C(=O)N[C@@H](CO)C(=O)NCC(=O)N[C@@H](C)C(=O)N1CCC[C@H]1C(=O)N1CCC[C@H]1C(=O)N1CCC[C@H]1C(=O)N[C@@H](CO)C(N)=O [Example 365] (H-[dY][Aib]EGTFTSDYSI[αMeL]LDKK([AEEA-AEEA-γGlu-C20 diacid])AQ[Aib]AFIE[αMeY]LIAGGPSSGAPPPS-NH2) | 0.175 | 0.0678 | 0.00703 | 20.8 | 0.464
